Values quoted from earlier work, collected in patent publication US20230041138A1, “TREATMENT OF HIS HYPORESPONDERS” (NewAmsterdam Pharma B.V. (Dutch Registration No. 55971946), priority 2021, published 2023).

Tested on: LDL-C
Conditions: rosuvastatin 20 mg; cited from earlier work

Compound: CC(C)c1nc(N(C)S(C)(=O)=O)nc(-c2ccc(F)cc2)c1/C=C/[C@@H](O)C[C@@H](O)CC(=O)O [rosuvastatin]
- median LDL-C lowering response: 50%
- share of patients with LDL-C reduction <50%: 43%
